Consider 19 molecules from ChEMBL document CHEMBL5325448, “Design, synthesis and biological evaluation of phosphoroxy quinazoline derivatives as potential EGFRT790M/C797S inhibitors” (Bioorg Med Chem, 2023).

In data set [1] the target is Epidermal growth factor receptor (Homo sapiens, UniProt P00533, C797S/EX19DEL/T790M). The data set can be described thus: Inhibition of EGFR Del19/T790M/C797S triple mutant (unknown origin) using TK as substrate incubated for 120 mins in presence of ATP by HTRF assay.
Sequence of Epidermal growth factor receptor (Homo sapiens, UniProt P00533, C797S/EX19DEL/T790M) (P00533 whole entry, looked up, stated change not applied): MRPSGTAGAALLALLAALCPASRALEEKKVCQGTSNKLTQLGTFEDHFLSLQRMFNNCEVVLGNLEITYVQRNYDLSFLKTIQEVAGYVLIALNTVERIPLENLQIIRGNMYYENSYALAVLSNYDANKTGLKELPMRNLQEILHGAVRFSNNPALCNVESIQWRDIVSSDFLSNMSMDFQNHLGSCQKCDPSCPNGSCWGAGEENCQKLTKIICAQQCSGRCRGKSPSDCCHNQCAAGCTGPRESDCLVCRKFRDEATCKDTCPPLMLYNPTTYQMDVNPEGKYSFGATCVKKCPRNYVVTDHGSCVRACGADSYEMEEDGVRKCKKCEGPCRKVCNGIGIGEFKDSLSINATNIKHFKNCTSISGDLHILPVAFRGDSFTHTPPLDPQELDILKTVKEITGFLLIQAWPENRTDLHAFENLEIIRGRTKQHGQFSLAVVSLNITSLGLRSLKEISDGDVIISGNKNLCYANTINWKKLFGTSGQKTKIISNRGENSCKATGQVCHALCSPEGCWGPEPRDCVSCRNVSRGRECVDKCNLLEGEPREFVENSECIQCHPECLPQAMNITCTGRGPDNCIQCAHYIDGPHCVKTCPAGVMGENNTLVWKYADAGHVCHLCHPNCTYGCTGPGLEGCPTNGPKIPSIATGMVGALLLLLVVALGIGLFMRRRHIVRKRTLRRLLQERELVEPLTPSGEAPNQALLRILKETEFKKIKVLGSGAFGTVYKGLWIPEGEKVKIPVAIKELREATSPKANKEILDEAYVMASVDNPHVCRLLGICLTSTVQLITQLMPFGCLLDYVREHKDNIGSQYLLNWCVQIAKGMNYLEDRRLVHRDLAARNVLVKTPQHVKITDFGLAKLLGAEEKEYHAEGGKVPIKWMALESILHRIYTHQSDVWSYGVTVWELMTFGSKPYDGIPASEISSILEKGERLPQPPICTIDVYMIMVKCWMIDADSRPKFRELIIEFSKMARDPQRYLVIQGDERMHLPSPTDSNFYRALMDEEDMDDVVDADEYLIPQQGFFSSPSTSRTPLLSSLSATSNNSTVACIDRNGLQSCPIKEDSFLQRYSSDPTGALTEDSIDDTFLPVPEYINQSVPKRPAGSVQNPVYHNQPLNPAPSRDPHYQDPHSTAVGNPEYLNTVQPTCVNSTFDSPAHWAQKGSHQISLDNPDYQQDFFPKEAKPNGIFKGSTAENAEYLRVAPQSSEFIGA
For data set [2], the target named is Epidermal growth factor receptor (Homo sapiens, UniProt P00533, C797S/L858R/T790M). The data set can be described thus: Inhibition of EGFR L858R/T790M/C797S triple mutant (unknown origin) using TK as substrate incubated for 120 mins in presence of ATP by HTRF assay. (TR-FRET usually uses a lanthanide donor and a delayed reading to cut background.)
Sequence of Epidermal growth factor receptor (Homo sapiens, UniProt P00533, C797S/L858R/T790M) (P00533 25-1210 T790M/C797S/L858R limits assumed): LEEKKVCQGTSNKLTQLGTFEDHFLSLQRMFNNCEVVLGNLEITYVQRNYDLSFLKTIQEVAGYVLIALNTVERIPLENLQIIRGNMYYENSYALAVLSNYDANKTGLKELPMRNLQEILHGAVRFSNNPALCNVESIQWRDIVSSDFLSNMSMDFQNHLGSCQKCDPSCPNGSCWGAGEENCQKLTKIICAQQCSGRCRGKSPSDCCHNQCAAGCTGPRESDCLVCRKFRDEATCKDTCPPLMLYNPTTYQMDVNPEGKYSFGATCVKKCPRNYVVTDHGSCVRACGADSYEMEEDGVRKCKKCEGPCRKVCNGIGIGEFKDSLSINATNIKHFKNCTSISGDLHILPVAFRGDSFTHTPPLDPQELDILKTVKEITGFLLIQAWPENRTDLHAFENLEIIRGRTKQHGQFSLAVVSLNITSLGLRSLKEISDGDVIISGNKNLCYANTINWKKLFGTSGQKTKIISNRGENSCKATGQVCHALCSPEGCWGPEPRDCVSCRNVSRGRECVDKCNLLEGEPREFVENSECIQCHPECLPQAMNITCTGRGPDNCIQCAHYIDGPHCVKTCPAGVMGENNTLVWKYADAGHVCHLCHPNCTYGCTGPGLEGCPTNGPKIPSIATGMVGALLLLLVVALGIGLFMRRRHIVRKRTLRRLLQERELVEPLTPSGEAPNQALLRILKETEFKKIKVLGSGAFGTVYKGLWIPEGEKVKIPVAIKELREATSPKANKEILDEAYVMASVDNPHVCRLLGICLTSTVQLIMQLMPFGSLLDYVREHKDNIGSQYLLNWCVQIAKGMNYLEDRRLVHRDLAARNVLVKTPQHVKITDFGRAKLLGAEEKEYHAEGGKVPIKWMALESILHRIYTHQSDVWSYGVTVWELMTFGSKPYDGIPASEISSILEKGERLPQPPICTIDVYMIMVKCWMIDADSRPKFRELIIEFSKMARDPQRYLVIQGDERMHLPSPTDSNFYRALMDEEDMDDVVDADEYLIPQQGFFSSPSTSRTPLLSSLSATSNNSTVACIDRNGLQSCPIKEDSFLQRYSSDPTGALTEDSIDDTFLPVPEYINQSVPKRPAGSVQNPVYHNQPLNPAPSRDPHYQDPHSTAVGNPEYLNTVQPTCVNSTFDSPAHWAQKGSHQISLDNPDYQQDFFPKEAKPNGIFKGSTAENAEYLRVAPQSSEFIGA
A short description of data set [3]: Cytotoxicity against mouse Ba/F3 EGFR-Del19/T790M/C797S cells assessed as cell growth inhibition measured after 72 hrs by CellTiter-Glo luminescent assay. It counts as functional, cell-based. (In general: ATP-based viability assays read luminescence as a measure of living cells.)
Data set [4] concerns the target Epidermal growth factor receptor (Homo sapiens, UniProt P00533). The data set can be described thus: Inhibition of wild type EGFR (unknown origin) using TK as substrate incubated for 120 mins in presence of ATP by HTRF assay.
A short description of data set [5]: AUC (0 to infinity) in BALB/c mouse at 5 mg/kg, po measured upto 24 hrs by LC/MS-MS analysis. Type of data set: ADME, organism-based. Also noted: time < 24 hrs, dose 5 mg/kg, route po. As to conditions: in vivo.
For another data set, the system named is A-431. The data set can be described thus: Cytotoxicity against human A-431 cells assessed as cell growth inhibition incubated for 72 hrs by CellTiter-Glo luminescent assay. As to conditions: A-431, 72 h. It counts as functional, cell-based.
The nature of data set [6]: MRT in BALB/c mouse at 5 mg/kg, po measured upto 24 hrs by LC-MS/MS analysis. Type of data set: ADME, organism-based. As to conditions: in vivo.
Data set [7] is described as follows: Cmax in BALB/c mouse at 5 mg/kg, po measured upto 24 hrs by LC-MS/MS analysis. Type of data set: ADME, organism-based. Also noted: dose 5 mg/kg, time < 24 hrs, route po. As to conditions: in vivo.
Data set [8] in a line: AUC (0 to t) in BALB/c mouse at 5 mg/kg, po measured upto 24 hrs by LC-MS/MS analysis. It counts as ADME, organism-based. Also noted: time < 24 hrs, dose 5 mg/kg, route po. As to conditions: in vivo.
Data set [9] is described as follows: Half life in BALB/c mouse at 5 mg/kg, po measured upto 24 hrs by LC/MS-MS analysis. It counts as ADME, organism-based. As to conditions: in vivo.
The nature of data set [10]: Antitumor activity against mouse Ba/F3 EGFR-Del19/T790M/C797S cells xenografted in BALB/c nude mouse assessed as tumor growth inhibition at 15 mg/kg, po administered once a day for 14 consecutive days and measured twice a week relative to control. It counts as functional. As to conditions: 336 h, time 14 day, read-out: TGI.
Data set [11] has as its system PC-9. The data set can be described thus: Antitumor activity against human PC-9 cells harboring EGFR Del19/T790M/C797S triple mutant xenografted in NOD/SCID mouse assessed as tumor growth inhibition at 15 mg/kg, po administered once a day for 21 consecutive days and measured twice a week relative to control. Type of data set: functional. As to conditions: PC-9, 504 h, time 21 day, read-out: TGI. Background: Xenograft models place foreign cells or tissue in a host animal.

Data set [12] can be described thus: Antitumor activity against mouse Ba/F3 EGFR-Del19/T790M/C797S cells xenografted in BALB/c nude mouse assessed as tumor growth inhibition at 30 mg/kg, po administered once a day for 14 consecutive days and measured twice a week relative to control. Type of data set: functional. As to conditions: 336 h, time 14 day, read-out: TGI.
Data set [13] has as its system PC-9. The data set can be described thus: Antitumor activity against human PC-9 cells harboring EGFR Del19/T790M/C797S triple mutant xenografted in NOD/SCID mouse assessed as tumor growth inhibition at 30 mg/kg, po administered once a day for 21 consecutive days and measured twice a week relative to control. Type of data set: functional. As to conditions: PC-9, 504 h, time 21 day, read-out: TGI.

A value given as a limit tells only on which side of the number the result lay.

Sequence of Epidermal growth factor receptor (Homo sapiens, UniProt P00533) (P00533 whole entry): as the sequence (P00533 whole entry, looked up, stated change not applied) above

As a reminder, the IC50 is the midpoint of a concentration-inhibition curve. Take `COc1cc(N2CCC(N3CC(N(C)C)C3)CC2)c(C)cc1Nc1ncc(SC)c(Nc2ccc3nccnc3c2P(C)(C)=O)n1`: the half-inhibitory concentration (IC50) in [1] was 0.39 nM; in data set [2], 0.05 nM; in [3] it was 19.7 nM.
Take `COCC1(C)CN(C2CCN(c3cc(OC)c(Nc4ncc(Br)c(Nc5ccc6nccnc6c5P(C)(C)=O)n4)cc3C)CC2)C1`: the half-maximal inhibitory concentration (IC50) was 0.3 nM in data set [1], 0.81 nM in [2], greater than 500 nM in data set [4] and 22.3 nM in data set [3].
By AUC(0-inf) is commonly meant total exposure, with the tail of the curve extrapolated. High values mean high exposure, low ones low exposure. Usually MRT stands for the average time that molecules of a dose stay in the body. The Cmax is the peak of the concentration-time curve. What is called AUC(0-t) is the area under the concentration-time curve up to a stated or last time point. Read a low AUC(0-t) as low exposure. Usually half-life stands for the time in which the quantity being followed falls by half. A lower half-life goes with rapid decline. In data set [5], `COc1cc(N2CCC(N3C[C@H]4COC[C@H]4C3)CC2)c(C)cc1Nc1ncc(Br)c(Nc2ccc3nccnc3c2P(C)(C)=O)n1` gave a total exposure AUC(0-inf) of 11200 ng·h/mL. Moreover, the IC50 in data set [2] amounted to 0.12 nM; with A-431, 425 nM; in data set [3], 11 nM. In data set [6], this molecule came in with an MRT of 5.6 h. Besides, in data set [7], the Cmax came to 1360 ng/mL. This molecule also showed an AUC(0-t) at 24 h in data set [8] of 11200 ng·h/mL. The same molecule had a half-life in data set [9] of 3.3 h.
For the molecule `CCOC1CN(C2CCN(c3cc(OC)c(Nc4ncc(Br)c(Nc5ccc6nccnc6c5P(C)(C)=O)n4)cc3C)CC2)C1`, the IC50 is 0.65 nM in data set [1] and 29 nM in data set [3].
Regarding `COCC1CN(C2CCN(c3cc(OC)c(Nc4ncc(Br)c(Nc5ccc6nccnc6c5P(C)(C)=O)n4)cc3C)CC2)C1`, the half-maximal inhibitory concentration (IC50) in data set [1] stood at 0.69 nM; in data set [2], 0.06 nM; in data set [3], 15 nM.
On to `CCc1cc(Nc2ncc(C(F)(F)F)c(Nc3ccc4nccnc4c3P(C)(C)=O)n2)c(OC)cc1N1CCC(N2CC(N(C)C)C2)CC1`, for which the figures for the IC50 (in the data set with A-431; in data set [3]) were 547 nM and 54 nM, respectively.
Consider `COc1cc(N2CCC(N3CC(N(C)C)C3)CC2)c(C)cc1Nc1ncc(Cl)c(Nc2ccc3nccnc3c2P(C)(C)=O)n1`, for which the IC50 in data set [1] is 0.25 nM; in [2], 0.12 nM; in data set [3] it was 16.3 nM.
With `COc1cc(N2CCC(N3CC[C@@H](N(C)C)C3)CC2)c(C)cc1Nc1ncc(Br)c(Nc2ccc3nccnc3c2P(C)(C)=O)n1`, the IC50 is 0.13 nM in [2] and 9 nM in data set [3].
For the molecule `COc1cc(N2CCC(N3CC(N(C)C)C3)CC2)c(C)cc1Nc1ncc(Br)c(Nc2ccc3nccnc3c2P(C)(C)=O)n1`, the AUC(0-inf) in data set [5] came to 15600 ng·h/mL. Also, the inhibition in vivo at 15 mg/kg came to 48.4% in data set [10] and 21.6% in the data set on PC-9 [11]. The IC50 was 0.06 nM in data set [1] and 12.7 nM in data set [3]. In data set [6], this molecule yielded an MRT of 6 h. The inhibition in vivo at 30 mg/kg is 82.6% in data set [12] and 46.8% with PC-9 [13]. This molecule also had a Cmax in data set [7] of 1570 ng/mL. The same molecule displayed an area under the curve AUC(0-t) at 24 h in data set [8] of 15400 ng·h/mL. Further, the half-life in [9] was 3.5 h.
For the molecule `COc1cc(N2CCC(N3CC(C(C)(C)O)C3)CC2)c(C)cc1Nc1ncc(Br)c(Nc2ccc3nccnc3c2P(C)(C)=O)n1`, the IC50 worked out at 0.07 nM in data set [1], 0.15 nM in data set [2] and 18 nM in data set [3].
`CCc1cc(Nc2ncc(Cl)c(Nc3ccc4nccnc4c3P(C)(C)=O)n2)c(OC)cc1N1CCC(N2CC(N(C)C)C2)CC1`: the IC50 is 0.61 nM in [1], 0.4 nM in data set [2], greater than 500 nM in data set [4] and 29.7 nM in data set [3].
For `COc1cc(N2CCC(N3CC(C)(CO)C3)CC2)c(C)cc1Nc1ncc(Br)c(Nc2ccc3nccnc3c2P(C)(C)=O)n1`, the IC50 was 0.06 nM in data set [1], 0.15 nM in data set [2] and 17.7 nM in data set [3].
As to `COc1cc(N2CCC(N3CCN(C(C)=O)CC3)CC2)c(C)cc1Nc1ncc(Br)c(Nc2ccc3nccnc3c2P(C)(C)=O)n1`, the half-maximal inhibitory concentration (IC50) in data set [1] was 0.07 nM; in data set [2] it was 0.12 nM; in the data set on A-431, 578 nM; in [4], 500 nM; in [3], 17.7 nM.
`COc1cc(N2CCC(N3CC(CC#N)C3)CC2)c(C)cc1Nc1ncc(Br)c(Nc2ccc3nccnc3c2P(C)(C)=O)n1`: in [5], the AUC(0-inf) was determined as 11200 ng·h/mL. For the same molecule, the concentration for half-maximal inhibition (IC50) amounted to 0.33 nM in data set [1], 0.12 nM in data set [2], 461 nM in [4] and 12.7 nM in data set [3]. Moreover, in data set [6], the MRT came out at 5.12 h. This molecule came in with a peak concentration (Cmax) in data set [7] of 1270 ng/mL. This molecule also displayed an area under the curve AUC(0-t) at 24 h in data set [8] of 11200 ng·h/mL. Further, the half-life in [9] was 3.1 h.
For `CCc1cc(Nc2ncc(Br)c(Nc3ccc4nccnc4c3P(C)(C)=O)n2)c(OC)cc1N1CCC(N2CC(N(C)C)C2)CC1`, the figures for the half-maximal inhibitory concentration (IC50) in data set [1] and in data set [3] were 0.11 nM and 16.3 nM, respectively.
Turning to `COc1cc(N2CCC(N(C)CCN(C)C)CC2)c(C)cc1Nc1ncc(Br)c(Nc2ccc3nccnc3c2P(C)(C)=O)n1`, the half-maximal inhibitory concentration (IC50) in data set [1] stood at 0.06 nM; in data set [2], 0.15 nM; in the data set with A-431 it was 406 nM; in data set [3] it was 16 nM.
Consider `COc1cc(N2CCC(N3CCN(C)CC3)CC2)ccc1Nc1ncc(Cl)c(Nc2ccccc2P(C)(C)=O)n1` [BRIGATINIB], for which, in data set [5], the AUC(0-inf) came out at 6500 ng·h/mL. For the same molecule, the IC50 in data set [3] worked out at 433 nM. In addition, the Cmax in [7] came to 927 ng/mL. In data set [8], this molecule registered an AUC(0-t) at 24 h of 6490 ng·h/mL. Also, the half-life in data set [9] is 2.8 h.
As to `COc1cc(N2CCC(N3CC(CO)C3)CC2)c(C)cc1Nc1ncc(Br)c(Nc2ccc3nccnc3c2P(C)(C)=O)n1`, the concentration for half-maximal inhibition (IC50) in [1] worked out at 0.57 nM; in [2] it was 0.34 nM; in data set [4] it was 590 nM; in data set [3] it was 41 nM.
In data set [5], `COc1cc(N2CCC(N3CC(F)(CO)C3)CC2)c(C)cc1Nc1ncc(Br)c(Nc2ccc3nccnc3c2P(C)(C)=O)n1` registered an AUC(0-inf) of 17000 ng·h/mL. In addition, the IC50 in [1] is 0.13 nM; in data set [2], 0.1 nM; with A-431 it was 808 nM; in [4] it was greater than 500 nM; in [3], 18.7 nM. Also, the mean residence time (MRT) in [6] worked out at 6.3 h. In addition, the Cmax in data set [7] was determined as 1730 ng/mL. The AUC(0-t) at 24 h in data set [8] stood at 16900 ng·h/mL. For the same molecule, the half-life in [9] was 3.7 h.
